According to paper PMC12405493, “Selective ubiquitination of drug-like small molecules by the ubiquitin ligase HUWE1” (Nature Communications, 2025):

Columns and labels:
[1] = molecular target: T1, vinylthioether-linked HUWE1^HECT-Ub complex (Homo sapiens, UniProt Q7Z6Z7); test: Isothermal titration calorimetry (ITC) with HUWE1^HECT~Ub proxy; format: binding; details: 25 °C
T1 construct: The preparation of the vinylthioether-linked HUWE1^HECT-Ub complex was also previously described; made in house; host or cells: bacteria (components)
Procedure: (§1) ITC was performed with an ITC200 calorimeter (MicroCal) at 25 °C. The proteins were dialyzed into 20 mM HEPES (pH 7.5), 150 mM NaCl, and 1 mM β-mercaptoethanol (β-ME) overnight. 600 μM HUWE1^HECT or HUWE1^HECT-Ub were applied to the cell and a 10-fold molar excess of BI8626 to the syringe (and vice versa). The reference cell was filled with buffer. Titration experiments included 1 injection of 1.5 μL, followed by 15 injections of 2.4 μL in 3-s intervals, with 150-s spacings between individual injections. The reference power was set to 12 μcal s^−1 and the stirring speed to 270 rpm. To control for instrument functionality, 5 mM CaCl2 were titrated into 0.4 mM EDTA in 10 mM MES (pH 5.6). Data were plotted with OriginPro v.2020b (OriginLab).

HEK293T cells [2] = test: Ub remnant profiling (diGly proteomics); format: cell-based, human; details: 15 μM, 24 h vs DMSO
Procedure: (§2) For total proteomics and Ub remnant profiling (diGly proteomics), HEK293T cells were treated with 15 μM BI8626 (in DMSO) or an equivalent volume of DMSO for 24 h, washed with ice-cold 1 x DPBS, and lysed in 9 M urea, 50 mM Tris (pH 8.0) and 150 mM NaCl, supplemented with protease inhibitor (Roche) and 50 µM PR-619, and processed essentially as described. Briefly, the cells were lysed by sonication, non-solubilized material removed by centrifugation, and the protein concentration was determined with a Pierce BCA Protein Assay Kit. 5 mg was used for further MS processing and four biological replicates per condition.
(§3) After reduction with 5 mM DTT and alkylation with 10 mM chloroacetamide, followed by quenching with 5 mM DTT, lysates were digested with 5 ng/μl LysC protease (Wako) at RT for 1 h. Subsequent digestion of peptides with trypsin (Promega) at a 1: 200 enzyme: peptide ratio was performed. Desalted and lyophilized peptides were resuspended in 1.5 ml IAP buffer (50 mM MOPS (pH 7.2), 10 mM Na2HPO4, 50 mM NaCl) and centrifuged to remove insoluble material. […]
(§4) Data collection was controlled by Tune v.4.0.4084.22 (Thermo Scientific) and Xcalibur v.2.4 (Thermo Fisher Scientific). Raw data files from quadruplicate samples were analyzed using MaxQuant v.1.6.0.1 (Max Planck Institute of Biochemistry)[56],[57]. […]

HUWE1^HECT = molecular target: T2, HUWE1^HECT (Homo sapiens, UniProt Q7Z6Z7); test: Isothermal titration calorimetry (ITC) with HUWE1^HECT; format: binding; details: 25 °C
T2 construct: the isolated HECT domain of HUWE1 (HUWE1^HECT); made in house
T2 sequence (Q7Z6Z7 4038-4374 limits assumed): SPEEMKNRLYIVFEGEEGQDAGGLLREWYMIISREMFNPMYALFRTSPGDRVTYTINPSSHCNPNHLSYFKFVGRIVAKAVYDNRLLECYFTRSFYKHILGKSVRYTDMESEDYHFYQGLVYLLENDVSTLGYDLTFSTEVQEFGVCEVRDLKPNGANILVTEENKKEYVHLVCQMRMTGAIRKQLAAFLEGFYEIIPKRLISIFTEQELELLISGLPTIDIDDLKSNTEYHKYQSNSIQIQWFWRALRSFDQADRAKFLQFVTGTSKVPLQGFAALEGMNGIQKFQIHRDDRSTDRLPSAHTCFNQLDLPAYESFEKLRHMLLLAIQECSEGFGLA
Procedure: as §1

HEK293T cells [3] = test: Quantitative total proteomics; format: cell-based, human; details: 15 μM, 24 h vs DMSO
Procedure: as §2, §3, §4

SMILES: NCc1cccc(CNc2ncnc3c(N4CCN(Cc5ccccc5)CC4)ncnc23)c1 [BI8626]
- Interaction with the HUWE1^HECT~Ub proxy by ITC [1]: No binding was detected
- Protein ubiquitination changes (diGly proteomics) (HEK293T cells [2]): predominantly reductions in protein ubiquitination
- Interaction with HUWE1^HECT by ITC (HUWE1^HECT): No binding was detected
- Total proteome changes (HEK293T cells [3]): widespread compound-induced changes
